The test system of data set [1] is HLE, SNU-387 SNU-449, and Huh7. The data set is described as follows: mRNA expression in hepatocellular cancer cells after CHIR99021 by real-time PCR. Format: cell-based, human. The following applies: SNU-387, SNU-449, Huh7, CHIR99021 final concentration 5 μM. For orientation: In qPCR the cycle at which signal appears reflects the starting amount.
In the next data set the test system is MCF7. Kind of data set: mRNA expression in MCF7 cells by real-time PCR. Format: cell-based, human.
For the next data set, the system named is Huh6 cells. Kind of data set: mRNA expression in Huh6 cells by real-time PCR. Format: cell-based, human. The note with it: as in mRNA expression of Axin2. As to the method:
Next, the mechanism for regulating expression of GREB1 in hepatoblastoma by YAP and c-Met was investigated. […] However, in Huh6 cells and HepG2 cells, knockdown of YAP/TAZ had no effect on expression of GREB1 (see b of FIG. 13). Further, when Huh6 cells was treated with CHIR99021, or treated with XMU-MP1, which has an inhibitory effect on Mst1/2 kinase and is an activator of YAP, or treated with CHIR99021 and XMU-MP1 in combination, mRNA expression of GREB1 was suppressed as in mRNA expression of Axin2 (see c of FIG. 13).

Data set [2] relates to mouse fetal liver cells (BMEL). Kind of data set: mRNA expression in BMEL cells by real-time PCR. Format: cell-based. The following applies: CHIR99021 final concentration 5 μM.
Data set [3] relates to HepG2 cells. The data set is described as follows: mRNA (real-time PCR) and protein (lysate probing) expression in HepG2 cells. Format: cell-based, human. As to the method:
(§1) Using RNAiMAX (Life Technologies/Thermo Fisher Scientific), HepG2 cells, Huh6 cells, Hep3B cells, JHH7 cells, and SKMEL28 cells were each transfected with each siRNA (10 nm). In experiments, the cells were used from 48 to 120 hours after transfection.

Data set [4] has as its system HepG2 cells. The data set is described as follows: Cell viability by propidium iodide and Hoechst33342 staining. Format: cell-based, human. The following applies: medium without Z-VAD, 0.1% FBS, 2 days; PI and Hoechst33342. The method, then: Further, HepG2 cells were transfected with control siRNA or siRNAs (GREB1 #1 siRNA and GREB1 #2 siRNA), cultured in media (caspase inhibitor Z-VAD was contained in one condition, and not contained in the other condition) containing 0.1% FBS for 2 days, stained with propidium iodide (PI, […]) and Hoechst33342 (nucleus), and the cell viability was evaluated.
Further, HepG2 cells transfected with control siRNA, GREB1 siRNA (GREB1 #2 siRNA), p15 siRNA, or siRNA of GREB1 (GREB1 #2 siRNA) and siRNA of p15 in combination were cultured in media (caspase inhibitor Z-VAD was contained in one condition, and not contained in the other condition) containing 0.1% FBS for 2 days, stained with propidium iodide (PI) and Hoechst33342, and the cell viability was calculated.

Data set [5] relates to HepG2 cells. The data set is described as follows: Cell proliferation assay, two-dimensional culture (plastic dish), Cyquant. Format: cell-based, human. The method, then:
Cells were seeded on a plate at 1.0×10^4 cells/mL, and, after 12 hours, the medium was replaced with a medium containing 10% serum. While the cell number was counted every 48 hours, the cells were cultured up to 10 days. The measurement of the cell number was performed using Cyquant NF assays (Life Technologies/Thermo Fisher Scientific) according to protocols recommended by the manufacturer.
Mock HepG2 cells (having a vector only, containing no GREB1) or GREB1-transduced HepG2 cells were transfected with control siRNA or two different types of siRNA (GREB1 #1 siRNA and GREB1 #2 siRNA), then two-dimensional culture (plastic dish culture) was performed, and a relative cell number was calculated by Cyquant assay overtime. As a result, in GREB1 knockdown, proliferative capacity of HepG2 cells in two-dimensional culture was reduced. However, when GREB1-transduced HepG2 cells were transfected with siRNAs against GREB1 (GREB1 #1 siRNA/GREB1 and GREB1 #2 siRNA/GREB1), the proliferative capacity of HepG2 cells was not affected (see a of FIG. 4).

The next data set deals with GREB1. Kind of data set: GREB1 expression in HepG2 cells after GREB1 siRNA or GREB1 ASO (cell lysates probed with anti-GREB1 antibody). Format: cell-based, human. The note with it: siRNA 10 nm, lysate probing. The method, then:
Phosphorothioated I5-mer antisense oligonucleotides (ASOs) containing AmNA monomers were prepared (synthesized by GeneDesign (Ibaraki, Japan)). In the present specification, “hGREB1-6424-AmNA (15)” is sometimes simply referred to as “ASO-6424” or “GREB1 ASO-6424”. Similar abbreviations are used for describing other ASOs. Using RNAiMAX (Invitrogen, Carlsbad, Calif., USA), HepG2 or COLO679 cells were transfected with 10 nM of ASOs. In experiments, the cells were used from 36 to 48 hours after transfection.
as §1
As reported previously, knockdown of β-catenin decreased HepG2 cell proliferation (see a of FIG. 3). […] Thus, to elucidate the role of GREB1 in HepG2 cells, knockdown of GREB1 was carried out using two different siRNAs.
Next, HepG2 cells were transfected with control ASO or each of the above-described GREB1 ASOs, cultured in a medium containing 10% FBS for 2 days, and the cell lysates were probed with anti-GREB1 antibody and anti-HSP90 antibody.

A further data set relates to liver tumors of BYM mice. Kind of data set: Tumorigenesis by HTVi (hydrodynamic tail vein injection), BYM mice with GREB1 shRNA. Format: in vivo. As to the method: In the presence of Greb1 shRNA #3 (SEQ ID NO: 8) (20 μg) or control, and pLIVE-SB13 (8 μg), pT2BH-YAPS127A (20 μg), pT2BH-ΔN90 β-catenin-mutLuc3 (20 μg), pT3-EF1a-cMET (20 μg), and GFP2ALuc were diluted in 2.5 ml of physiological saline, and injected into tail veins of 8- to 9-week old male wild-type C57BL6/N mice within 5 to 7 seconds. Livers of the mice were collected at a predetermined time after injection (or at occurrence of the tumor), and various parameters associated with tumorigenesis were assessed. Specifically, this assessment was performed according to techniques described in Tao, J. et al., (2014). Gastroenterology 147, 690-701 and Tward, A. D. et al, (2007). Proc Natl Acad Sci USA 104, 14771-14776. In this evaluation, ΔN90 β-catenin refers to a β-catenin mutant in which amino acids at positions 1 to 90 of human ft-catenin were deleted, and YAPS127A refers to a YAP mutant in which serine at positon 127 of YAP was substituted by alanine.
Further, ΔN90 β-catenin, YapS127A, and c-Met were administered to mice together with GREB1 shRNA, and the livers were collected 7 to 8 weeks after administration. As a result, in mice transduced with ΔN90 β-catenin, YAPS127A, and c-Met (BYM mice, control), a plurality of nodules were observed on the entire surfaces of the livers (see a of FIG. 14). On the other hand, in mice transduced with GREB1 shRNA together with ΔN90 β-catenin, YAPS127A, and c-Met (BYM GREB1 KD mice), the nodules in the liver were suppressed (see a of FIG. 14).

Where [6] appears, read: CHIR99021 in the presence or absence of ICI-182,786.
The mark [7] stands for this setting: BYM+ GREB1 shRNA mouse vs BYM mouse without knockdown.
The mark [8] stands for this setting: tumor nodules of BYM GREB1 KD mice K2 and K4, real-time PCR.

d = 2'-deoxy (DNA); r = 2'-OH (RNA)

Consider `Cc1c[nH]c(-c2cnc(NCCNc3ccc(C#N)cn3)nc2-c2ccc(Cl)cc2Cl)n1` [CHIR99021], for which the “expression of Axin2” value (in [1]; in the data set on MCF7 (setting [6])) was “increased” in each case. Further, the “expression of GREB1” value in [1] was “not increased”; in the data set on MCF7 (setting [6]), “not increased”; in data set [2], “increased”. In addition, the “mRNA expression of GREB1” value in the data set on Huh6 cells is recorded as “suppressed”.

Consider `C[C@]12CC[C@@H]3c4ccc(O)cc4C[C@@H](CCCCCCCCC[S+]([O-])CCCC(F)(F)C(F)(F)F)[C@H]3[C@@H]1CC[C@@H]2O` (stereo partly drawn) [ICI-182,786], for which the “expression level of GREB1 mRNA” value in the data set with HepG2 cells [3] (HepG2 cells treated for 48 hours, real-time PCR) was “not affected”. Also, the “expression of GREB1” value with MCF7 (ICI-182,786 treatment, real-time PCR) was “dramatically decreased”. The “mRNA expression of PAI-1” value with MCF7 (estrogen receptor antagonist treatment) is on record as “suppresses”.

With `CN1C(=O)c2sccc2N(C)c2nc(Nc3ccc(S(N)(=O)=O)cc3)ncc21` [XMU-MP1], the “mRNA expression of GREB1” value in the data set with Huh6 cells was “suppressed”.

Consider “GREB1 #1 siRNA: siRNA against human GREB1; sense 5′-GCCAUUCGUGUGCUUCCAUTT-3′ (SEQ ID NO: 4), antisense SEQ ID NO: 5 (antisense AUGGAAGCACACGAAUGGCTT; sugars from the 5' end r19 d2, backbone not given here)”, for which the “amounts of cleaved caspase 3 and PARP1” value in the data set with HepG2 cells [3] (HepG2 cells, 0.1% FBS for 2 days, lysate probing) was “increased”. Besides, the “expressions of β-catenin and Axin2” value in the data set with HepG2 cells [3] (HepG2 cells, GREB1 knockdown, lysate probing) is “no effect”. The “expression of cell cycle regulators cyclinA, cyclinB, phosphorylated histone H3” value in the data set on HepG2 cells [3] (HepG2 cells, medium containing 1% FBS for 1 day, lysate probing) is “decreases”. Further, the “cell death of HepG2 cells” value in the data set with HepG2 cells [4] is “elevated cell death”. For the same compound, the “proliferative capacity of HepG2 cells in two-dimensional culture” value in the data set with HepG2 cells [5] (GREB1-transduced HepG2 cells) is on record as “not affected”; in the data set on HepG2 cells [5] (mock HepG2 cells, relative cell number by Cyquant over time) it was “reduced”. In the data set with GREB1, the “knockdown of GREB1 (anti-GREB1 antibody)” value is listed as “knocked down”.

On to “GREB1 shRNA: shRNA against mouse Greb1, encoding DNA SEQ ID NO: 8, given as pT2BH-GFP2ALuc plasmid by hydrodynamic injection (DNA CCGGCTACTTTGTTAGCAATGATATCTCGAGATATCATTGCTAACAAAGTAGTTTTTTG)”, for which, in the data set on liver tumors of BYM mice (BYM GREB1 KD mice K1 to K6), the “incidence rate of tumorigenesis” value is given as “decreased” and the “mice in which any tumor was not observed” value is listed as 4 out of the 6. Further, in the data set on liver tumors of BYM mice (BYM mice, livers collected 7 to 8 weeks after administration, shRNA plasmid 20 μg HTVi), the “nodules in the liver” value was “suppressed”. For the same compound, in the data set on liver tumors of BYM mice (setting [7]), the “serum AFP level” value is “dramatically decreased” and the “weight of the liver” value was “dramatically decreased”. Also, in the data set with liver tumors of BYM mice (setting [8]), the “GREB1 mRNA expression levels in tumors” value is recorded as “low”; the “expression levels of DLK1 and TACSTD1 in tumors” value was “the same as those of the GREB1 low group of BYM mice”.

Values taken from patent publication US20220249538A1, “TREATMENT AGENT FOR SEX HORMONE-INSENSITIVE GREB1-POSITIVE TUMORS” (OSAKA UNIVERSITY, priority 2019, published 2022).
